Test results from patent US10111428B2, “Nematocide containing lactonic ring and preparation method and application thereof” (priority 2015, dated 2018).
Values after ≈ are worked out from the molar mass of the structure shown.

Key:
Edaphon = Edaphon toxicity test (Test Guidelines on Environmental Safety Assessment for Chemical Pesticides); settings: 15 d; 100 times of usual dose (simulative usual dose 40 ppm); cell adds 'low toxicity'
Description: (§1) According to the earthworm and edaphon toxicity test procedures as prescribed in the Test Guidelines on Environmental Safety Assessment for Chemical Pesticides, earthworm and edaphon toxicity tests are conducted on compounds 1 to 60 from Table 1. The simulative usual dose of pesticide in the edaphon test is 40 ppm.

Nematode eggs = test: Plant pathogenic nematode inhibition test by dipping: nematode egg hatch inhibition (NY/T 1154.5-2006); format: in vivo
Description: A plant pathogenic nematode inhibition test is conducted by dipping with the compounds in Table 1; and by referring to NY/T 1154.5-2006 (Part 5: Dipping Test for Insecticide Ovicidal Activity), the nematode egg hatch inhibition activity of the compounds is tested, as shown in Table 2: […]

Nematode J2 = test: Plant pathogenic nematode inhibition test by dipping: second-stage juveniles; format: in vivo
Earthworm = Earthworm toxicity test (Test Guidelines on Environmental Safety Assessment for Chemical Pesticides); format: in vivo; settings: cell adds 'low toxicity'
Description: as §1

O=C1CC(C(=O)OCCC(F)=C(F)F)C(c2ccc([N+](=O)[O-])cc2)O1 (centres unmarked) [Compound 58]
Edaphon Toxicity (15 d) (Inhibition ratio when added amount is 100 times of usual dose) (Edaphon): <50%, low toxicity
LC50 (Nematode eggs; in vivo): 10.07 µg/mL (≈ 28 µM)
LC50 (Nematode J2; in vivo): 12.18 µg/mL (≈ 33.9 µM)
Earthworm Toxicity LC50 (14 d) (Earthworm): >10, low toxicity mg/L

COc1ccc(C2OC(=O)CC2C(=O)OCCC=C(F)F)cc1 (centres unmarked) [Compound 38]
Edaphon Toxicity (15 d) (Inhibition ratio when added amount is 100 times of usual dose) (Edaphon): <50%, low toxicity
LC50 (Nematode eggs; in vivo): 12.14 µg/mL (≈ 37.2 µM)
LC50 (Nematode J2; in vivo): 13.40 µg/mL (≈ 41.1 µM)
Earthworm Toxicity LC50 (14 d) (Earthworm): >10, low toxicity mg/L

O=C1CC(C(=O)OCCC(F)=C(F)F)C(c2cccc(Cl)c2Cl)O1 (centres unmarked) [Compound 8]
Edaphon Toxicity (15 d) (Inhibition ratio when added amount is 100 times of usual dose) (Edaphon): <50%, low toxicity
LC50 (Nematode eggs; in vivo): 12.81 µg/mL (≈ 33.4 µM)
LC50 (Nematode J2; in vivo): 13.14 µg/mL (≈ 34.3 µM)
Earthworm Toxicity LC50 (14 d) (Earthworm): >10, low toxicity mg/L

N#Cc1ccc(C2OC(=O)CC2C(=O)OCCC(F)=C(F)F)cc1 (centres unmarked) [Compound 49]
Edaphon Toxicity (15 d) (Inhibition ratio when added amount is 100 times of usual dose) (Edaphon): <50%, low toxicity
LC50 (Nematode eggs; in vivo): 10.36 µg/mL (≈ 30.5 µM)
LC50 (Nematode J2; in vivo): 11.35 µg/mL (≈ 33.5 µM)
Earthworm Toxicity LC50 (14 d) (Earthworm): >10, low toxicity mg/L

O=C1CC(C(=O)OCCC(F)=C(F)F)C(c2cc(Cl)ccc2Cl)O1 (centres unmarked) [Compound 10]
Edaphon Toxicity (15 d) (Inhibition ratio when added amount is 100 times of usual dose) (Edaphon): <50%, low toxicity
LC50 (Nematode eggs; in vivo): 10.80 µg/mL (≈ 28.2 µM)
LC50 (Nematode J2; in vivo): 13.30 µg/mL (≈ 34.7 µM)
Earthworm Toxicity LC50 (14 d) (Earthworm): >10, low toxicity mg/L

O=C1CC(C(=O)OCCC(F)=C(F)F)C(c2ccc(F)cc2)O1 (centres unmarked) [Compound 20]
Edaphon Toxicity (15 d) (Inhibition ratio when added amount is 100 times of usual dose) (Edaphon): <50%, low toxicity
LC50 (Nematode eggs; in vivo): 10.143 µg/mL (≈ 30.5 µM)
LC50 (Nematode J2; in vivo): 12.532 µg/mL (≈ 37.7 µM)
Earthworm Toxicity LC50 (14 d) (Earthworm): >10, low toxicity mg/L

COc1cccc(C2OC(=O)CC2C(=O)OCCC=C(F)F)c1 (centres unmarked) [Compound 36]
Edaphon Toxicity (15 d) (Inhibition ratio when added amount is 100 times of usual dose) (Edaphon): <50%, low toxicity
LC50 (Nematode eggs; in vivo): 11.24 µg/mL (≈ 34.4 µM)
LC50 (Nematode J2; in vivo): 12.64 µg/mL (≈ 38.7 µM)
Earthworm Toxicity LC50 (14 d) (Earthworm): >10, low toxicity mg/L

O=C1CC(C(=O)OCCC(F)=C(F)F)C(c2ccc(Cl)cc2Cl)O1 (centres unmarked) [Compound 9]
Edaphon Toxicity (15 d) (Inhibition ratio when added amount is 100 times of usual dose) (Edaphon): <50%, low toxicity
LC50 (Nematode eggs; in vivo): 10.36 µg/mL (≈ 27 µM)
LC50 (Nematode J2; in vivo): 13.14 µg/mL (≈ 34.3 µM)
Earthworm Toxicity LC50 (14 d) (Earthworm): >10, low toxicity mg/L

O=C1CC(C(=O)OCCC(F)=C(F)F)C(c2cccc(Oc3cccc(C(F)(F)F)c3)c2)O1 (centres unmarked) [Compound 52]
Edaphon Toxicity (15 d) (Inhibition ratio when added amount is 100 times of usual dose) (Edaphon): <50%, low toxicity
LC50 (Nematode eggs; in vivo): 10.12 µg/mL (≈ 21.3 µM)
LC50 (Nematode J2; in vivo): 13.28 µg/mL (≈ 28 µM)
Earthworm Toxicity LC50 (14 d) (Earthworm): >10, low toxicity mg/L

COc1ccccc1C1OC(=O)CC1C(=O)OCCC=C(F)F (centres unmarked) [Compound 34]
Edaphon Toxicity (15 d) (Inhibition ratio when added amount is 100 times of usual dose) (Edaphon): <50%, low toxicity
LC50 (Nematode eggs; Test object: nematode eggs, dipping): 12.42 µg/mL (≈ 38.1 µM)
LC50 (Nematode J2; Test object: nematode J2 (second-stage juveniles), dipping): 13.10 µg/mL (≈ 40.1 µM)
Earthworm Toxicity LC50 (14 d) (Earthworm): >10, low toxicity mg/L

Nc1ccccc1C1OC(=O)CC1C(=O)OCCC(F)=C(F)F (centres unmarked) [Compound 59]
Edaphon Toxicity (15 d) (Inhibition ratio when added amount is 100 times of usual dose) (Edaphon): <50%, low toxicity
LC50 (Nematode eggs; in vivo): 11.24 µg/mL (≈ 34.1 µM)
LC50 (Nematode J2; in vivo): 13.24 µg/mL (≈ 40.2 µM)
Earthworm Toxicity LC50 (14 d) (Earthworm): >10, low toxicity mg/L

O=C1CC(C(=O)OCCC(F)=C(F)F)C(c2ccc(Cl)cc2)O1 (centres unmarked) [Compound 15]
Edaphon Toxicity (15 d) (Inhibition ratio when added amount is 100 times of usual dose) (Edaphon): <50%, low toxicity
LC50 (Nematode eggs; in vivo): 11.88 µg/mL (≈ 34.1 µM)
LC50 (Nematode J2; in vivo): 12.69 µg/mL (≈ 36.4 µM)
Earthworm Toxicity LC50 (14 d) (Earthworm): >10, low toxicity mg/L

COc1ccccc1C1OC(=O)CC1C(=O)OCCC(F)=C(F)F (centres unmarked) [Compound 35]
Edaphon Toxicity (15 d) (Inhibition ratio when added amount is 100 times of usual dose) (Edaphon): <50%, low toxicity
LC50 (Nematode eggs; in vivo): 10.84 µg/mL (≈ 31.5 µM)
LC50 (Nematode J2; in vivo): 11.67 µg/mL (≈ 33.9 µM)
Earthworm Toxicity LC50 (14 d) (Earthworm): >10, low toxicity mg/L

O=C1CC(C(=O)OCCC(F)=C(F)F)C(c2cc(F)c(F)c(F)c2)O1 (centres unmarked) [Compound 30]
Edaphon Toxicity (15 d) (Inhibition ratio when added amount is 100 times of usual dose) (Edaphon): <50%, low toxicity
LC50 (Nematode eggs; in vivo): 9.73 µg/mL (≈ 26.4 µM)
LC50 (Nematode J2; in vivo): 10.96 µg/mL (≈ 29.8 µM)
Earthworm Toxicity LC50 (14 d) (Earthworm): >10, low toxicity mg/L

O=C1CC(C(=O)OCCC(F)=C(F)F)C(c2ccc(OCc3ccc(F)cc3)cc2)O1 (centres unmarked) [Compound 56]
Edaphon Toxicity (15 d) (Inhibition ratio when added amount is 100 times of usual dose) (Edaphon): <50%, low toxicity
LC50 (Nematode eggs; in vivo): 11.56 µg/mL (≈ 26.4 µM)
LC50 (Nematode J2; in vivo): 13.47 µg/mL (≈ 30.7 µM)
Earthworm Toxicity LC50 (14 d) (Earthworm): >10, low toxicity mg/L

O=C1CC(C(=O)OCCC(F)=C(F)F)C(c2cccc(Cl)c2)O1 (centres unmarked) [Compound 14]
Edaphon Toxicity (15 d) (Inhibition ratio when added amount is 100 times of usual dose) (Edaphon): <50%, low toxicity
LC50 (Nematode eggs; in vivo): 12.10 µg/mL (≈ 34.7 µM)
LC50 (Nematode J2; in vivo): 13.01 µg/mL (≈ 37.3 µM)
Earthworm Toxicity LC50 (14 d) (Earthworm): >10, low toxicity mg/L

O=C1CC(C(=O)OCCC(F)=C(F)F)C(c2cc(Cl)cc(Cl)c2Cl)O1 (centres unmarked) [Compound 12]
Edaphon Toxicity (15 d) (Inhibition ratio when added amount is 100 times of usual dose) (Edaphon): <50%, low toxicity
LC50 (Nematode eggs; in vivo): 12.30 µg/mL (≈ 29.5 µM)
LC50 (Nematode J2; in vivo): 13.35 µg/mL (≈ 32 µM)
Earthworm Toxicity LC50 (14 d) (Earthworm): >10, low toxicity mg/L
